Test results reported in patent US7105531B2, “Tricyclic protein kinase inhibitors” (WYETH, priority 1999, dated 2006).

How the values were obtained:
[1] = molecular target: T1, Rat2 fibroblasts transformed with v-Src/Hu c-Src fusion gene (Homo sapiens, UniProt P12931, cells depend on it, form not given); test: Anchorage independent Src-transformed fibroblast proliferation test procedure; type: cell-based, rat; details: for GI50: rat2 fibroblasts transformed with v-src/hu c-src fusion gene, read-out: Src TF prolif IC50
T1 construct: fused on or other part: The v-Src frame of Rous sarcoma virus: everything outside the catalytic domain, namely the N-terminal unique/SH3/SH2 part; Candidates are Prague C (P00526), then Schmidt-Ruppin A (P00524)
From the text: Anchorage Independent Src-transformed Fibroblast Proliferation Test Procedure: Rat2 fibroblasts stably transformed with a plasmid containing CMV promotor controlled v-Src/Hu c-Src fusion gene in which the catalytic domain of human c-Src is inserted in place of the v-Src catalytic domain in the v-Src gene are used for the measurement of src dependent suspension growth.

T1 sequence (P12931 whole entry, change not shown, the tested form may be a part): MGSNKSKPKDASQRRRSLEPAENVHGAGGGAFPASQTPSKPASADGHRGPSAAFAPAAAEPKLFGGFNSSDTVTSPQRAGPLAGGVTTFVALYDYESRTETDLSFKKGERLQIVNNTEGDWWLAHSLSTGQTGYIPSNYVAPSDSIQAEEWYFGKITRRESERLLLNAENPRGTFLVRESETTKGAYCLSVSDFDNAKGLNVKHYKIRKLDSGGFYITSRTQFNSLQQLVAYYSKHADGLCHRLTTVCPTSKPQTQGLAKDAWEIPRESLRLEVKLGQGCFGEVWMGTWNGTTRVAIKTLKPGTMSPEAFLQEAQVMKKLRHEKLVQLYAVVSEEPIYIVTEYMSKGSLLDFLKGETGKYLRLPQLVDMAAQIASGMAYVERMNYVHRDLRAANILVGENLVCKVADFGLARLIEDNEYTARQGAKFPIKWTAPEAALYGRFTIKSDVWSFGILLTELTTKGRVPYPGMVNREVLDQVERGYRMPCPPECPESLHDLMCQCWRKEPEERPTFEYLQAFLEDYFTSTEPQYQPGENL

Question: Which GI50 [1] does the source give for `COc1cc(Nc2c(C#N)cnc3nc4cc(OCCN5CCOCC5)c(OC)cc4cc23)c(Cl)cc1Cl` [Example 173, 4-(2,4-Dichloro-5-methoxyanilino)-7-methoxy-8-[2-(4-morpholinyl)ethoxy]benzo[b][1,8]naphthyridine-3-carbonitrile] here?
Answer: 3740 nM

Question: What about the melting point of the same compound?
Answer: 242 to 244 °C (dec.)

Question: For `COc1cc(Nc2c(C#N)cnc3cc4cc(OC)c(OCCN5CCC(O)CC5)cc4cc23)c(Cl)cc1C` [Example 207, 4-(2-Chloro-5-methoxy-4-methylanilino)-8-methoxy-7-[2-(4-hydroxy-1-piperidinyl)ethoxy]benzo[g]quinoline-3-carbonitrile], which GI50 [1] is on record?
Answer: 929 nM

Question: What about the melting point of the same compound?
Answer: 205 to 235 °C

Question: For `COc1cc(Nc2c(C#N)cnc3cc4c(cc23)ncn4CCN2CCOCC2)c(C)cc1Cl` [Example 57, 8-(4-Chloro-5-methoxy-2-methylanilino)-3-[2-(4-morpholinyl)ethyl]-3H-imidazo[4,5-g]quinoline-7-carbonitrile], which “Src TF prolif % Inh” value ([1]; @ dose 10 μM) is on record?
Answer: 0%

Question: And the melting point?
Answer: 246 to 248 °C

Question: Which GI50 [1] does the source give for `CCOc1cc2cc3c(Nc4cc(OC)c(Cl)cc4C)c(C#N)cnc3cc2cc1OCCN(CC(N)=O)CC(N)=O` [Example 194, 2-(Carbamoylmethyl-{2-[4-(4-chloro-5-methoxy-2-methylphenylamino)-3-cyano-7-ethoxybenzo[g]quinolin-8-yloxy]-ethyl}-amino)-acetamide] here?
Answer: > 10000 nM

Question: What about the melting point of the same compound?
Answer: 168 to 170 °C

Question: For `COc1cc(Nc2c(C#N)cnc3cc4cc(OCCN5CCN(C)CC5)c(OC)cc4cc23)c(Cl)cc1F` [Example 211, 4-(2-Chloro-4-fluoro-5-methoxyanilino)-7-methoxy-8-[2-(4-methyl-1-piperazinyl)ethoxy]benzo[g]quinoline-3-carbonitrile], which GI50 [1] is on record?
Answer: 128 nM

Question: And the melting point?
Answer: 197 to 205 °C

Question: For `COc1cc(Nc2c(C#N)cnc3cc4cc(OCCN5CCOCC5)c(OC)cc4cc23)c(Cl)cc1Cl` [Example 129, 4-(2,4-dichloro-5-methoxyanilino)-7-methoxy-8-[2-(4-morpholinyl)ethoxy]benzo[g]quinoline-3-carbonitrile], which GI50 [1] is on record?
Answer: 15 nM

Question: Which GI50 [1] does the source give for `COc1cc(Nc2c(C#N)cnc3cc4cc(OCCn5nccn5)c(OC)cc4cc23)c(Cl)cc1Cl` [Example 158, 4-(2,4-Dichloro-5-methoxyphenylamino)-7-methoxy-8-(2-[1,2,3]triazol-2-yl-ethoxy)benzo[g]quinoline-3-carbonitrile] here?
Answer: 67 nM

Question: With `COc1cc2cc3ncc(C#N)c(Nc4ccc(F)c(Cl)c4)c3cc2cc1OCCN1CCOCC1` [Example 212, 4-(3-Chloro-4-fluoroanilino)-8-methoxy-7-[2-(4-morpholinyl)ethoxy]benzo[g]quinoline-3-carbonitrile] as the compound, how does the GI50 [1] read?
Answer: > 10000 nM

Question: And the melting point?
Answer: 205 to 210 °C

Question: What does the source list for `COc1cc(Nc2c(C#N)cnc3c2C=C2N=CN=C2C3)cc(OC)c1OC` [Example 42, 8-(3,4,5-Trimethoxyanilino)imidazo[4,5-g]quinoline-7-carbonitrile]?
Answer: Src TF prolif % Inh ([1]; @ dose 0.22 μM): 50%; melting point: > 260 °C

Question: What does the source list for `CCOc1cc2cc3c(Nc4cc(OC)c(Cl)cc4C)c(C#N)cnc3cc2cc1OCCN1CCOCC1` [Example 191, 4-(4-Chloro-5-methoxy-2-methylanilino)-7-ethoxy-8-[2-(4-morpholinyl)ethoxy]benzo[g]quinoline-3-carbonitrile]?
Answer: GI50 [1]: 22 nM; melting point: 201 to 203 °C

Question: With `COc1cc(Nc2c(C#N)cnc3nc4cc(OC)c(OC)cc4cc23)c(Cl)cc1Cl` [Example 165, 4-(2,4-Dichloro-5-methoxyanilino)-7,8-dimethoxybenzo[b][1,8]naphthyridine-3-carbonitrile] as the compound, how does the GI50 [1] read?
Answer: > 10000 nM

Question: What about the melting point of the same compound?
Answer: 297 °C (dec.)

Question: For `N#Cc1cnc2c(c1Nc1cccc(Br)c1)C=C1N=CN=C1C2` [Example 37, 8-(3-Bromo-phenylamino)imidazo[4,5-g]quinoline-7-carbonitrile], which melting point is on record?
Answer: 286 to 288 °C

Question: With `COc1cc(Nc2c(C#N)cnc3cc4ccccc4cc23)c(C)cc1Cl` [Example 5, 4-(4-Chloro-5-methoxy-2-methylanilino)benzo[g]quinoline-3-carbonitrile] as the compound, how does the melting point read?
Answer: 195 to 197 °C
